This note sets out measurements from US10681908B2, “Molecules having pesticidal utility, and intermediates, compositions, and processes, related thereto” (Dow AgroSciences LLC, priority 2016, dated 2020).

Experiment [1] concerns Beet Armyworm (Spodoptera exigua, LAPHEG). The experiment is described as follows: Bioassay on Beet Armyworm (BAW), 128-well diet tray assay. In kind it is in vivo. Conditions: 168 h, 50 μg/cm^2 on artificial diet, second instar larvae, five to seven days, 25° C., read-out: BAW % Control (or Mortality) rating. The protocol:
(§1) Example A: Bioassays on Beet Armyworm (Spodoptera Exigua, LAPHEG) (“BAW”), Corn Earworm (Helicoverpa zea, HELIZE) (“CEW”), and Cabbage Looper (Trichoplusia ni, TRIPNI) (“CL”)
(§2) Certain molecules disclosed in this document were tested against BAW, CEW, and CL using procedures described in the following examples. In the reporting of the results, the “BAW, CEW, & CL Rating Table” was used (See Table Section).
Bioassays on BAW were conducted using a 128-well diet tray assay. One to five second instar BAW larvae were placed in each well (3 mL) of the diet tray that had been previously filled with 1 mL of artificial diet to which 50 μg/cm^2 of the test molecule (dissolved in 50 μL of 90:10 acetone-water mixture) had been applied (to each of eight wells) and then allowed to dry. Trays were covered with a clear self-adhesive cover and held at 25° C., 14:10 light-dark for five to seven days. Percent mortality was recorded for the larvae in each well; activity in the eight wells was then averaged. The results are indicated in the table entitled “Table ABC: Biological Results” (See Table Section).
(§3) Bioassays on BAW and CL were conducted according to the procedures outlined in Example A: Bioassays on Beet Armyworm (“BAW”) and Cabbage Looper (“CL”) using the indicated concentrations.

Experiment [2] relates to Cabbage Looper (Trichoplusia ni, TRIPNI). Briefly: Bioassay on Cabbage Looper (CL), 128-well diet tray assay. The conditions noted are these: 168 h, 50 μg/cm^2 on artificial diet, second instar larvae, five to seven days, 25° C., read-out: CL % Control (or Mortality) rating. It counts as in vivo. The protocol: as §1, §2
Bioassays on CL were conducted using a 128-well diet tray assay. One to five second instar CL larvae were placed in each well (3 mL) of the diet tray that had been previously filled with 1 mL of artificial diet to which 50 μg/cm^2 of the test molecule (dissolved in 50 μL of 90:10 acetone-water mixture) had been applied (to each of eight wells) and then allowed to dry. Trays were covered with a clear self-adhesive cover and held at 25° C., 14:10 light-dark for five to seven days. Percent mortality was recorded for the larvae in each well; activity in the eight wells was then averaged. The results are indicated in the table entitled “Table ABC: Biological Results” (See Table Section).
as §3

The structures appear in SMILES notation.

As for `CCC(F)(F)C(/C=C(\F)c1ccc(C(=O)N[C@H](C)CSCC(F)(F)F)c(C(F)(F)F)c1)c1cc(Cl)c(Cl)c(Cl)c1` (stereo partly drawn) [F39, 4-((Z)-1,4,4-Trifluoro-3-(3,4,5-trichlorophenyl)hex-1-en-1-yl)-N—((R)-1-((2,2,2-trifluoroethyl)thio)propan-2-yl)-2-(trifluoromethyl)benzamide], the mortality at 50 µg/cm2 in experiment [1] and in experiment [2] was 50 to 100% in each case.
As for `CCSC[C@@H](C)NC(=O)c1ccc(/C(F)=C/C(c2cc(Br)cc(Br)c2)C(F)(F)F)cc1C(F)(F)F` (stereo partly drawn) [F40, 4-((Z)-3-(3,5-Dibromophenyl)-1,4,4,4-tetrafluorobut-1-en-1-yl)-N—((R)-1-(ethylthio)propan-2-yl)-2-(trifluoromethyl)benzamide], the mortality at 50 µg/cm2 in experiment [1] and in experiment [2] was 50 to 100% each time.
Regarding `CCSC[C@@H](C)NC(=O)c1ccc(/C(F)=C/C(c2cc(Cl)c(F)c(Cl)c2)C(F)(F)F)cc1C(F)(F)F` (stereo partly drawn) [F41, 4-((Z)-3-(3,5-Dichloro-4-fluorophenyl)-1,4,4,4-tetrafluorobut-1-en-1-yl)-N—((R)-1-(ethylthio)propan-2-yl)-2-(trifluoromethyl)benzamide], the mortality at 50 µg/cm2 in experiment [1] and in experiment [2] was 50 to 100% throughout.
With `C=Cc1c(Cl)cc(C(/C=C(\F)c2ccc(C(=O)N[C@H](C)CSCC)c(C(F)(F)F)c2)C(F)(F)F)cc1Cl` (stereo partly drawn) [F47, 4-((Z)-3-(3,5-Dichloro-4-vinylphenyl)-1,4,4,4-tetrafluorobut-1-en-1-yl)-N—((R)-1-(ethylthio)propan-2-yl)-2-(trifluoromethyl)benzamide], the mortality at 50 µg/cm2 in experiment [1] and in experiment [2] was 50 to 100% each time.
With `CCSC[C@@H](C)NC(=O)c1ccc(/C(F)=C/C(c2cc(Cl)c(Br)c(Cl)c2)C(F)(F)F)cc1C(F)(F)F` (stereo partly drawn) [F48], the mortality at 50 µg/cm2 in experiment [1] and in experiment [2] was 50 to 100% in each case.
On to `O=C(NCC[S+]([O-])CC(F)(F)F)c1ccc(/C(F)=C/C(c2cc(Cl)c(Cl)c(Cl)c2)C(F)(F)F)cc1C(F)(F)F` (stereo not drawn) [F50, (Z)-4-(1,4,4,4-tetrafluoro-3-(3,4,5-trichlorophenyl)but-1-en-1-yl)-N-(2-((2,2,2-trifluoroethyl)sulfinyl)ethyl)-2-(trifluoromethyl)benzamide], for which the mortality at 50 µg/cm2 in experiment [1] and in experiment [2] was 50 to 100% throughout.
For `O=C(NCCSCC(F)(F)F)c1ccc(/C(F)=C/C(c2cc(Cl)c(Cl)c(Cl)c2)C(F)(F)F)cc1C(F)(F)F` (stereo not drawn) [F51, (Z)-4-(1,4,4,4-tetrafluoro-3-(3,4,5-trichlorophenyl)but-1-en-1-yl)-N-(2-((2,2,2-trifluoroethyl)thio)ethyl)-2-(trifluoromethyl)benzamide], the mortality at 50 µg/cm2 in experiment [1] and in experiment [2] was 50 to 100% in each case.
Take `C[C@H](CSCC(F)(F)F)NC(=O)c1ccc(/C(F)=C/C(c2ccc(Cl)c(Cl)c2)C(C)(F)F)cc1C(F)(F)F` (stereo partly drawn) [F57, 4-((Z)-3-(3,4-Dichlorophenyl)-1,4,4-trifluoropent-1-en-1-yl)-N—((R)-1-((2,2,2-trifluoroethyl)thio)propan-2-yl)-2-(trifluoromethyl)benzamide]: the mortality at 50 µg/cm2 in experiment [1] and in experiment [2] was 50 to 100% in each case.
As for `C[C@H](CSCC(F)(F)F)NC(=O)c1ccc(/C(F)=C/C(c2ccc(Cl)c(Cl)c2)C(F)(F)F)cc1Br` (stereo partly drawn) [F58, 2-Bromo-4-((Z)-3-(3,4-dichlorophenyl)-1,4,4,4-tetrafluorobut-1-en-1-yl)-N—((R)-1-((2,2,2-trifluoroethyl)thio)propan-2-yl)benzamide], the mortality at 50 µg/cm2 in experiment [1] and in experiment [2] was 50 to 100% each time.
With `C[C@H](CSCC(F)(F)F)NC(=O)c1ccc(/C(F)=C/C(c2ccc(Br)c(Br)c2)C(F)(F)F)cc1C(F)(F)F` (stereo partly drawn) [F62], the mortality at 50 µg/cm2 in experiment [1] and in experiment [2] was 50 to 100% throughout.
Consider `CCS(=O)(=O)C[C@@H](C)NC(=O)c1ccc(/C(F)=C/C(c2cc(Cl)c(Br)c(Cl)c2)C(F)(F)F)cc1C(F)(F)F` (stereo partly drawn) [F63, 4-((Z)-3-(4-Bromo-3,5-chlorophenyl)-1,4,4,4-tetrafluorobut-1-en-1-yl)-N—((R)-1-(ethylsulfonyl)propan-2-yl)-2-(trifluoromethyl)benzamide], for which the mortality at 50 µg/cm2 in experiment [1] and in experiment [2] was 50 to 100% in each case.
`C[C@H](CSCC(F)(F)F)NC(=O)c1ccc(/C(F)=C/C(c2cc(Cl)cc(Br)c2)C(F)(F)F)cc1C(F)(F)F` (stereo partly drawn) [F64, 4-((Z)-3-(3-Bromo-5-chlorophenyl)-1,4,4,4-tetrafluorobut-1-en-1-yl)-N—((R)-1-((2,2,2-trifluoroethyl)thio)propan-2-yl)-2-(trifluoromethyl)benzamide]: the mortality at 50 µg/cm2 in experiment [1] and in experiment [2] was 50 to 100% in each case.
Turning to `C[C@H](C[S+]([O-])CC(F)(F)F)NC(=O)c1ccc(/C(F)=C/C(c2ccc(Cl)c(Cl)c2)C(F)(F)F)cc1Br` (stereo partly drawn) [F66, 2-Bromo-4-((Z)-3-(3,4-dichlorophenyl)-1,4,4,4-tetrafluorobut-1-en-1-yl)-N-((2R)-1-((2,2,2-trifluoroethyl)sulfinyl)propan-2-yl)benzamide], the mortality at 50 µg/cm2 in experiment [1] and in experiment [2] was 50 to 100% in each case.
For `C[C@H](CS(=O)(=O)CC(F)(F)F)NC(=O)c1ccc(/C(F)=C/C(c2ccc(Cl)c(Cl)c2)C(F)(F)F)cc1Br` (stereo partly drawn) [F67], the mortality at 50 µg/cm2 in experiment [1] and in experiment [2] was 50 to 100% in each case.
In the case of `C[C@H](CS(=O)(=O)CC(F)(F)F)NC(=O)c1ccc(/C(F)=C/C(c2cc(Cl)c(Cl)c(C(F)F)c2)C(F)(F)F)cc1C(F)(F)F` (stereo partly drawn) [F70, 4-((Z)-3-(3,4-dichloro-5-(difluoromethyl)phenyl)-1,4,4,4-tetrafluorobut-1-en-1-yl)-N—((R)-1-((2,2,2-trifluoroethyl)sulfonyl)propan-2-yl)-2-(trifluoromethyl)benzamide], the mortality at 50 µg/cm2 in experiment [1] and in experiment [2] was 50 to 100% in each case.
In the case of `C[C@H](CS(=O)(=O)CC(F)(F)F)NC(=O)c1ccc(/C(F)=C/C(c2cc(F)c(Cl)c(C(F)(F)F)c2)C(F)(F)F)cc1C(F)(F)F` (stereo partly drawn) [F71, 4-((Z)-3-(4-Chloro-3-fluoro-5-(trifluoromethyl)phenyl)-1,4,4,4-tetrafluorobut-1-en-1-yl)-N—((R)-1-((2,2,2-trifluoroethyl)sulfonyl)propan-2-yl)-2-(trifluoromethyl)benzamide], the mortality at 50 µg/cm2 in experiment [1] and in experiment [2] was 50 to 100% throughout.
On to `C[C@H](CS(=O)(=O)CC(F)(F)F)NC(=O)c1ccc(/C(F)=C/[C@H](c2cc(Cl)c(Cl)c(Cl)c2)C(F)(F)F)cc1C(F)(F)F` [F72, 4-((R,Z)-1,4,4,4-tetrafluoro-3-(3,4,5-trichlorophenyl)but-1-en-1-yl)-N—((R)-1-((2,2,2-trifluoroethyl)sulfonyl)propan-2-yl)-2-(trifluoromethyl)benzamide], for which the mortality at 50 µg/cm2 in experiment [1] and in experiment [2] was 50 to 100% throughout.
As to `C=Cc1cc(C(/C=C(\F)c2ccc(C(=O)N[C@H](C)CS(=O)(=O)CC(F)(F)F)c(C(F)(F)F)c2)C(F)(F)F)cc(Cl)c1Cl` (stereo partly drawn) [F73, 4-((Z)-3-(3,4-dichloro-5-vinylphenyl)-1,4,4,4-tetrafluorobut-1-en-1-yl)-N—((R)-1-((2,2,2-trifluoroethyl)sulfonyl)propan-2-yl)-2-(trifluoromethyl)benzamide], the mortality at 50 µg/cm2 in experiment [1] and in experiment [2] was 50 to 100% throughout.
For the compound `CSC[C@@H](C)NC(=O)c1ccc(/C(F)=C/C(c2cc(Cl)c(Cl)c(Cl)c2)C(F)(F)F)cc1C(F)(F)F` (stereo partly drawn) [F75, N—((R)-1-(Methylthio)propan-2-yl)-4-((Z)-1,4,4,4-tetrafluoro-3-(3,4,5-trichlorophenyl)but-1-en-1-yl)-2-(trifluoromethyl)benzamide], the mortality at 50 µg/cm2 in experiment [1] and in experiment [2] was 50 to 100% in each case.
For the compound `C[C@H](CS(=O)(=O)CC(F)(F)F)NC(=O)c1ccc(/C(F)=C/C(c2ccc(F)c(C(F)(F)F)c2)C(F)(F)F)cc1C(F)(F)F` (stereo partly drawn) [F77, 4-((Z)-1,4,4,4-Tetrafluoro-3-(4-fluoro-3-(trifluoromethyl)phenyl)but-1-en-1-yl)-N—((R)-1-((2,2,2-trifluoroethyl)sulfonyl)propan-2-yl)-2-(trifluoromethyl)benzamide], the mortality at 50 µg/cm2 in experiment [1] and in experiment [2] was 50 to 100% throughout.
As to `C[C@H](CS(=O)(=O)CC(F)(F)F)NC(=O)c1ccc(/C(F)=C/C(c2ccc(Cl)c(Br)c2)C(F)(F)F)cc1C(F)(F)F` (stereo partly drawn) [F79, 4-((Z)-3-(3-Bromo-4-chlorophenyl)-1,4,4,4-tetrafluorobut-1-en-1-yl)-N—((R)-1-((2,2,2-trifluoroethyl)sulfonyl)propan-2-yl)-2-(trifluoromethyl)benzamide], the mortality at 50 µg/cm2 in experiment [1] and in experiment [2] was 50 to 100% throughout.

What is called mortality is the percentage killed.
